Experimental findings from BindingDB's records for doi:10.1021/jm020018f (Sphinx Laboratories, 2002) are described below.

Molecules are shown by their SMILES.

The target in one assay is cAMP-dependent protein kinase catalytic subunit alpha (Bos taurus, UniProt P00517). The assay can be described thus: PKA assay.
Details: not given
The protocol: The activity of PKA, activated by cAMP, is measured by its ability to transfer phosphate from [gamma-32P]ATP to histone.
Compound `O=C(N[C@@H]1CNCCC[C@H]1OC(=O)c1cc(O)c(Cc2c(O)cccc2C(=O)O)c(O)c1)c1ccc(O)cc1` [2-{[2,6-dihydroxy-4-({[(3R,4R)-3-[(4-hydroxybenzene)amido]azepan-4-yl]oxy}carbonyl)phenyl]methyl}-3-hydroxybenzoic acid] registered an IC50 of 470 nM.
For the compound `O=C(N[C@@H]1CNCCC[C@H]1OC(=O)c1cc(O)c(C(=O)c2ccc3ccccc3c2O)c(O)c1)c1ccc(O)cc1` [4-trans-[4-(1-Hydroxy-2-naphthoyl)-3,5-dihydroxybenzoyloxy]-3-(4-hydroxybenzamido)azepane], the half-inhibitory concentration (IC50) is > 150000 nM.
Still for that read-out and setting: to `O=C(N[C@@H]1CNCCC[C@H]1OC(=O)c1cc(O)c(C2OC(=O)c3cccc(O)c32)c(O)c1)c1ccc(O)cc1` (stereo partly drawn) [trans-4-[3,5-Dihydroxy-4-(4-hydroxy-3-phthlido)benzoyloxy]-3-(4-hydroxybenzamido)azepine] belongs 300 nM.
As to `O=C(N[C@@H]1CNCCC[C@H]1OC(=O)c1cc(O)c2c(=O)c3c(C(=O)O)cccc3oc2c1)c1ccc(O)cc1` [8-hydroxy-6-({[(3R,4R)-3-[(4-hydroxybenzene)amido]azepan-4-yl]oxy}carbonyl)-9-oxo-9H-xanthene-1-carboxylic acid], the IC50 is > 15000 nM.
Turning to `COc1cccc(O)c1C(=O)c1c(O)cc(C(=O)O[C@@H]2CCCNC[C@H]2NC(=O)c2ccc(O)cc2)cc1O` [(3R,4R)-3-[(4-hydroxybenzene)amido]azepan-4-yl 3,5-dihydroxy-4-[(2-hydroxy-6-methoxyphenyl)carbonyl]benzoate], 250 nM corresponded to half-maximal inhibition (IC50).
Regarding `COc1cccc(OC)c1C(=O)c1c(O)cc(C(=O)O[C@@H]2CCCNC[C@H]2NC(=O)c2ccc(O)cc2)cc1O` [(3R,4R)-3-[(4-hydroxybenzene)amido]azepan-4-yl 4-[(2,6-dimethoxyphenyl)carbonyl]-3,5-dihydroxybenzoate], half-maximal inhibition (IC50) required 360 nM.
Turning to `COc1cc(C(=O)O[C@@H]2CCCNC[C@H]2NC(=O)c2ccc(O)cc2)cc(OC)c1C(=O)c1c(O)cccc1O` [(3R,4R)-3-[(4-hydroxybenzene)amido]azepan-4-yl 4-[(2,6-dihydroxyphenyl)carbonyl]-3,5-dimethoxybenzoate], the IC50 was found to be 4300 nM.

The assay is the same for the next values; noted with them: pH 7.5; 30 °C.
In the case of `O=C(N[C@@H]1CNCCC[C@H]1OC(=O)c1cc(O)c(C(=O)c2c(O)cccc2O)c(O)c1)c1ccc(O)cc1` [(3R,4R)-3-[(4-hydroxybenzene)amido]azepan-4-yl 4-[(2,6-dihydroxyphenyl)carbonyl]-3,5-dihydroxybenzoate], the IC50 was determined as 440 nM.
With `O=C(N[C@@H]1CNCCC[C@H]1OC(=O)c1cc(O)c(C(=O)c2ccccc2C(=O)O)c(O)c1)c1ccc(O)cc1`, half-maximal inhibition (IC50) required 1000 nM.
Turning to `O=C(N[C@@H]1CNCCC[C@H]1OC(=O)c1cc(O)c(C(=O)[C@@H]2CCCC[C@H]2C(=O)O)c(O)c1)c1ccc(O)cc1` [(1R,2R)-2-{[2,6-dihydroxy-4-({[(3R,4R)-3-[(4-hydroxybenzene)amido]azepan-4-yl]oxy}carbonyl)phenyl]carbonyl}cyclohexane-1-carboxylic acid], the IC50 was 6700 nM.
The compound `O=C(N[C@@H]1CNCCC[C@H]1OC(=O)c1cc(O)c(C(=O)[C@@H]2CCCC[C@@H]2C(=O)O)c(O)c1)c1ccc(O)cc1` [4-trans-[4-(cis-2-Carboxycyclohexanoyl)-3,5-dihydroxybenzoyloxy]-3-(4-hydroxybenzamido)azepane] registered an IC50 of 7900 nM.
On to `O=C(N[C@@H]1CNCCC[C@H]1OC(=O)c1cc(O)c(C(=O)c2ccccc2O)c(O)c1)c1ccc(O)cc1` [4-trans-[4-(2-Hydroxybenzoyl)-3,5-dihydroxybenzoyloxy]-3-(4-hydroxybenzamido)azepane], for which the IC50 stood at 440 nM.

The term IC50 denotes the point on the concentration scale where inhibition reaches its midpoint. A lower IC50 goes with higher potency.
